For one data set, the system named is SJSA-1. In words: Cytotoxicity against human SJSA-1 cells incubated for 72 hrs in presence of 10% FBS by MTT assay. Particulars: SJSA-1, 72 h. Background: Formazan colour is commonly taken as a measure of viable cells.
The subject of the next data set is Fibroblast. The data set is described as follows: Protection against apoptosis in human fibroblast assessed as decrease in chemotherapy-induced caspase-3/7 level preincubated for 16 hrs followed by etoposide addition measured after 32 hrs. The format is functional, cell-based. Particulars: dose 4.6-10 µM, time 48.0 hrs.
Data set [1] relates to MCF7. The data set is described as follows: Antitumor activity against human MCF7 cells xenografted in athymic nu/nu mouse […] assessed as tumor growth inhibition administered intravenously twice a week measured for 30 days. The format is functional, cell-based. Particulars: dose 5-20 mg/kg, route iv, time 30.0 day. In general terms: Xenograft models place foreign cells or tissue in a host animal.

For data set [2], the system named is MCF7. The data set is described as follows: Antitumor activity against human MCF7 cells xenografted in athymic nude BALB/c mouse assessed as decrease in BrdU incorporation at 20 mg/kg, iv by immunohistochemical analysis. The format is functional, organism-based. Particulars: time <= 48.0 hrs, TDE = time-dependent effect.
A further data set has as its system Bone marrow cell. The data set is described as follows: Upregulation of serum MIC-1 level […] of C57BL/6 mouse at 2.4 mg/kg, iv administered every 8 hrs measured for 24 hrs by ELISA method. The format is functional, organism-based. (In general: In an ELISA, binding on a coated surface is turned into a signal by an enzyme label.)
For a further data set, the system named is MC-38. The data set is described as follows: Antitumor activity against mouse MC38 cells allografted in C57BL/6 mouse assessed as reduction in tumor volume at 8 mg/kg administered on day 0 to 4 and co-administered 30 mins prior to topotecan on day 1 to 4 followed by topotecan administration on day 5 measured for 40 days. The format is functional, organism-based. Particulars: time 40.0 day.

The test system of the next data set is NCI-H211. The data set is described as follows: Antitumor activity against human NCI-H211 cells xenografted in athymic nu/nu mouse assessed as reduction in tumor volume at 8 mg/kg administered on day 0 to 4 and co-administered 30 mins prior to topotecan on day 1 to 4 followed by topotecan administration on day 5 measured for 90 days. The class given is functional, organism-based. To be noted: time 90.0 day.

A short description of data set [3]: Plasma protein binding in monkey at 2 to 50 uM. The class given is ADME, cell-free, Macaca mulatta. To be noted: rhesus monkey, dose 2-50 µM, read-out: PPB (converted).
Data set [4] is described as follows: Plasma protein binding in monkey at 250 uM. The format is ADME, cell-free, Macaca mulatta. Particulars: rhesus monkey, read-out: PPB (converted).
Data set [5] is described as follows: Plasma protein binding in human assessed as unbound fraction at >200 uM. The format is ADME, cell-free.
Data set [6] in a line: Half life in plasma of athymic nu/nu mouse xenografted with human SJSA-1 cells at 25 mg/kg, iv measured for 24 hrs by LC-MS-MS analysis. The format is ADME, organism-based.
Data set [7] in a line: AUC (0 to 24 hrs) in tumor of athymic nu/nu mouse xenografted with human SJSA-1 cells at 25 mg/kg, iv measured for 24 hrs by LC-MS-MS analysis. On the set-up: dose 25 mg/kg, time 24 hrs, route iv. To be noted: in vivo. The format is ADME, organism-based, Neoplasm.

The source made the active and inactive calls. The rule behind the calls is not given here.

The values below come from ChEMBL document CHEMBL5346962, “Discovery of Sulanemadlin (ALRN-6924), the First Cell-Permeating, Stabilized α-Helical Peptide in Clinical Development” (J Med Chem, 2023).

As usually defined, the EC50 is the concentration at which the effect is half-maximal. As usually defined, the half-life is how long it takes for the measured level to halve.

`CC(=O)N[C@@H](CC(C)C)C(=O)N[C@H](C(=O)N[C@@H](Cc1ccccc1)C(=O)N[C@]1(C)CCCCCC/C=C/CCC[C@@](C)(C(=O)N[C@@H](C)C(=O)N[C@@H](C)C(=O)N[C@@H](C)C(=O)N[C@@H](C)C(=O)N[C@@H](C)C(=O)N[C@H](C)C(N)=O)NC(=O)[C@H](CC(C)C)NC(=O)[C@H](CCC(N)=O)NC(=O)[C@H](C)NC(=O)[C@H](Cc2c[nH]c3ccccc23)NC(=O)[C@H](Cc2ccc(O)cc2)NC(=O)[C@H](CCC(=O)O)NC1=O)[C@@H](C)O`: the EC50 in the data set with SJSA-1 came to 300 nM. Besides, the Activity result was “Dose-Dependent Effect” in the data set with Fibroblast, “Dose-Dependent Effect” in the data set with MCF7 [1] and “Tde” with MCF7 [2]. The result in the data set with Bone marrow cell, in the data set on MC-38 and with NCI-H211 was Active. The fraction unbound at up to 50 µM in data set [3] was 0.08. In addition, in data set [4], the fraction unbound at 250 µM was 0.12. Further, the fraction unbound in data set [5] amounted to 0.12. The molecule further had a half-life in [6] of 2.8 h. Moreover, the AUC in data set [7] was found to be 1 µg·h/g.
